The source of these data is publication PMC7137441, “Synthesis, biological evaluation and molecular docking analysis of vaniline–benzylidenehydrazine hybrids as potent tyrosinase inhibitors” (BMC Chemistry, 2020).

Structures are written as SMILES. Entries after “also recorded” stand apart in the source; their conditions may differ. Where two headings read alike, the source gives them in different places.

For series [1], the target named is T1, mushroom tyrosinase (Agaricus bisporus, UniProt C7FF04). Briefly: Mushroom tyrosinase inhibition assay (L-DOPA as substrate). It is filed as biochemical. As for the experimental part:
All test samples were first dissolved in DMSO at 50 mM and diluted to the required concentrations. First, […] of tyrosinase (0.5 mg ml) was mixed with 160 μl of 50 mM phosphate buffer (pH = 6.8) in 96-well microplates and then 10 μl of different concentration of the test sample was added. […] DMSO without test compounds and kojic acid were used as the control and positive control respectively. The tyrosinase activity without inhibitor was defined as 100%. Each concentration was analyzed in three independent experiments run in triplicate.

The target in series [2] is T1, mushroom tyrosinase. The experiment in a line: Kinetic study of tyrosinase inhibition (Lineweaver-Burk plot, L-DOPA as substrate). It is filed as biochemical. The settings on record: for Vm: L-DOPA 0.25-1 mM.
Experimental: The inhibition constants, Ki, and Vm for tyrosinase inhibitors were determined by fitting the kinetic data to a competitive, noncompetitive, or mixed inhibition model by nonlinear regression analysis using GraphPad Prism.
To determine the inhibition kinetics of vaniline-benzylidenehydrazine a series of experiments were performed. Different concentrations of the 4i (0, 10 and 25 µM) was chosen to get a series of straight lines. Pre-incubation and measurement time were the same as discussed in mushroom tyrosinase inhibition assay protocol. The maximal velocity (Vmax) and the Michaelis constant (Km) of the tyrosinase activity were determined by the Line weaver Burk plot at various concentrations of L-DOPA (0.25, 0.5, 0.75 and 1 mM) as a substrate. The inhibition type of the enzyme was assayed by Line weaver Burk plots of inverse of velocities (1/V) versus inverse of substrate concentrations 1/[S] mM.
[3] abbreviates: L-DOPA as the substrate, mean ± SEM of three to five independent experiments, read-out: IC50 against tyrosinase enzyme.

T1 sequence (C7FF04 1-392): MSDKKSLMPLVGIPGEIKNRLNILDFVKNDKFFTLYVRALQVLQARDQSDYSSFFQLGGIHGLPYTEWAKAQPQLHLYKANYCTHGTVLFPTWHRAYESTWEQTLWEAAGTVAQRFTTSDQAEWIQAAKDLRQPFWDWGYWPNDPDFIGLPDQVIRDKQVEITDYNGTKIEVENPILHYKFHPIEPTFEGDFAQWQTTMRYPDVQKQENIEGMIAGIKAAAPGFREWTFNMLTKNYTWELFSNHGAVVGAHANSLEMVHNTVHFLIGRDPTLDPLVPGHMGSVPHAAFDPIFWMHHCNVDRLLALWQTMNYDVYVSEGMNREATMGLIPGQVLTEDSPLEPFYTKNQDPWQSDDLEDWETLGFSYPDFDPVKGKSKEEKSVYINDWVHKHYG

What is called IC50 is the concentration that inhibits the measured activity by half. Usually melting point stands for the temperature, or range, at which the solid turns liquid. As for `COc1cc(C(=O)N/N=C/c2ccc(O)cc2O)ccc1O` [Compound 4a, (E)-Nʹ-(2,4-dihydroxybenzylidene)-4-hydroxy-3-methoxybenzohydrazide], the melting point is 243 °C. Moreover, in series [1] (setting [3]), the half-maximal inhibitory concentration (IC50) stood at 37.1 ± 1.02 µM.

For the molecule `COc1cc(C(=O)N/N=C/c2ccc(O)cc2)ccc1O` [Compound 4b, (E)-4-hydroxy-Nʹ-(4-hydroxybenzylidene)-3-methoxybenzohydrazide], the melting point was determined as 256 °C. For the same molecule, the IC50 in series [1] (setting [3]) came to 15.2 ± 1.34 µM.

`COc1ccc(/C=N/NC(=O)c2ccc(O)c(OC)c2)cc1` [Compound 4c, (E)-4-hydroxy-3-methoxy-Nʹ-(4-methoxybenzylidene)benzohydrazide]: the melting point turned out to be 110 °C. Also, the IC50 in series [1] (setting [3]) came to 35.6 ± 2.8 µM.

`COc1cc(C(=O)N/N=C/c2ccc(OC)c(OC)c2)ccc1O` [Compound 4d, (E)-Nʹ-(3,4-dimethoxybenzylidene)-4-hydroxy-3-methoxy benzohydrazide] came in with a melting point of 231 °C. The 50% inhibitory concentration (IC50) in series [1] (setting [3]) was determined as 20.9 ± 2.09 µM.

Molecule `COc1cc(C(=O)N/N=C/c2ccc(Br)cc2)ccc1O` [Compound 4e, (E)-Nʹ-(4-bromobenzylidene)-4-hydroxy-3-methoxybenzohydrazide] yielded a melting point of 115 °C. The IC50 in series [1] (setting [3]) worked out at 1.95 ± 2.34 µM.

`COc1cc(C(=O)N/N=C/c2ccc([N+](=O)[O-])cc2)ccc1O` [Compound 4f, (E)-4-hydroxy-3-methoxy-Nʹ-(4-nitrobenzylidene)benzohydrazide]: the melting point was determined as 195 °C. The IC50 in series [1] (setting [3]) turned out to be 29.1 ± 0.89 µM.

`COc1cc(C(=O)N/N=C/c2cc(OC)c(O)c(OC)c2)ccc1O` [Compound 4g, (E)-4-hydroxy-Nʹ-(4-hydroxy-3,5-dimethoxybenzylidene)-3-methoxy benzohydrazide] gave a melting point of 151 °C. Besides, the IC50 in series [1] (setting [3]) was 4.58 µM.

For `COc1ccc(/C=N/NC(=O)c2ccc(O)c(OC)c2)cc1O` [Compound 4h, (E)-4-hydroxy-Nʹ-(3-hydroxy-4-methoxybenzylidene)-3-methoxybenzohydrazide], the melting point was found to be 98 °C. Further, the IC50 in series [1] (setting [3]) turned out to be 10 ± 1.6 µM.

On to `CCOc1cc(/C=N/NC(=O)c2ccc(O)c(OC)c2)ccc1O` [Compound 4i, (E)-Nʹ-(3-ethoxy-4-hydroxybenzylidene)-4-hydroxy-3-methoxybenzohydrazide], for which, in series [1], half-maximal inhibition (IC50) was put at 1.58 µM. For the same molecule, the Vm is 0.18 OD/Min in series [2] (4i at 10 µM) and 0.17 OD/Min in series [2] (4i at 25 µM). Also, the Type of inhibition entry in series [2] (Lineweaver-Burk plot, 4i at 0, 10 and 25 µM) is “uncompetitive inhibition; also recorded: uncompetitive inhibitor”.

Consider `COc1cc(C(=O)N/N=C/c2ccccc2[N+](=O)[O-])ccc1O` [Compound 4j, (E)-4-hydroxy-3-methoxy-Nʹ-(2-nitrobenzylidene)benzohydrazide], for which the melting point came to 151 °C. Besides, the half-maximal inhibitory concentration (IC50) in series [1] (setting [3]) was found to be 17 ± 2.03 µM.

`COc1cc(C(=O)N/N=C/c2cccc([N+](=O)[O-])c2)ccc1O` [Compound 4k, (E)-4-hydroxy-3-methoxy-Nʹ-(3-nitrobenzylidene)benzohydrazide] showed a melting point of 151 °C. Besides, the IC50 in series [1] (setting [3]) stood at 5.84 ± 1.9 µM.
